Experimental data as given in patent publication US20240382600A1, “BIFUNCTIONAL DEGRADERS COMPRISING A TEAD BINDER” (Novartis AG, priority 2021, published 2024).

Key:
[1] = test system: MKN-45/Ubc-luc cells (unspecific inhibition of luciferase expression or activity); experiment: Reporter gene assay specificity control (Ubc-Luc), MKN-45; type: cell-based; conditions: Homo sapiens; MKN-45/Ubc-luc specificity control, 24 hrs
Source text: (§1) NCI-H2052 mesothelioma cells (RRID: CVCL_1518) bearing Hippo-pathway inactivating mutations upstream of YAP (homozygous deletion of LATS2 and mutation of NF2) were obtained from ATCC (American Type Culture Collection), while SF268 glioma cells (RRID: CVCL_1689) overexpressing YAP due to genomic amplification were obtained from the NCI (National Cancer Institute). MKN-45 gastric adenocarcinoma cells (RRID: CVCL_0434) genomically deleted for YAP were obtained from the JCRB (Japanese Collection of Research Bioresources) Cell Bank.
As a specificity control, MKN-45 cells were stably transduced with a Ubc-Luc reporter construct, in which constitutive expression of firefly luciferase is driven by the promoter of the ubiquitin C housekeeping gene. The resulting cell line, MKN-45/Ubc-luc, was selected and maintained in growth medium (RPMI 1640 (Amimed Cat #1-41F01-I), 2 mM L-Glutamine (Amimed Cat #5-10K50-H), 10% fetal calf serum (Amimed Cat #2-01F30-I Lot K08815P), 1% MEM Non-essential amino acids (Amimed Cat #5-13K00-H), 1× Penicillin/Streptomycin (Amimed Cat #4-01F00-H)) containing 1 μg/ml blasticidin (Gibco Cat #A11139-03).
(§2) Stock solutions of compounds were prepared at a concentration of 10 mM in DMSO and stored at 4° C. Where necessary to afford a full dose-response curve, the stock solutions were pre-diluted in DMSO to 1′000-fold the desired reduced start concentration. On the day after cell seeding, eleven 2-fold serial dilutions of each compound were dispensed directly into the cell assay plates using a HP 300D non-contact Digital Dispenser (TECAN). The final concentration of DMSO was normalized to 0.1% in all wells.
The ability of compounds to inhibit YAP-dependent transcription was assessed in NCI-H2052 Tet-On shYAP_2371 pLenti6 MCAT_Luc and SF268-MCAT_Luc, dox-i-shYAPLevy (Clone 13) cells, while specificity (lack of unspecific inhibition of luciferase expression or activity) was assessed in MKN-45/Ubc-luc cells. The individual cell lines were seeded at 2′500 cells/20 μl/well into white-wall, clear-bottom 384-well plates (Greiner, Cat #781098) and incubated over night at 37° C. prior to addition of serial compound dilutions as described above. Following incubation for 24 hrs at 37° C., compound-mediated modulation of reporter-gene activity was quantified 5 min after addition 20 μL […] BrightGlo (Promega Cat #E2620), by measuring luminescence intensity on a multi-mode plate-reader (TECAN) with an integration time of 100 ms.
(§3) For data analysis, the assay background value determined in wells containing medium, but no cells, was subtracted from all data points.

[2] = target: Avi-humanTEAD4^217-434 / Cy5 labeled humanYAP^60-100 (Homo sapiens (Human), UniProt Q15561); experiment: In-vitro biochemical TR-FRET assay (TEAD4/YAP); type: binding; conditions: 1 h at room temperature
Procedure: N-terminus Cy5 labeled humanYAP^60-100 (20 nM) was then added to this preparation. Compounds were dissolved at 10 mM in 100% DMSO and serial dilutions were made in 100% DMSO. The diluted compound solutions were incubated in white 384-well plates (Greiner Bio-One) for 1 h at room temperature with the above described mix. The final DMSO concentration present in the assay was 1%. […] The IC50 values were estimated by fitting the data by nonlinear fit regression (GraphPad Prism).

MKN-45/Ubc-luc cells = experiment: Proliferation assay (resazurin/AlamarBlue), MKN-45; type: cell-based; conditions: Homo sapiens; MKN-45, 72 hours
Source text: as §1
As a specificity control, MKN-45 cells were stably transduced with a Ubc-Luc reporter construct, in which constitutive expression of firefly luciferase is driven by the promoter of the ubiquitin C housekeeping gene.
as §2
(§4) After incubation for 72 hours at 37° C., compound-mediated modulation of cell viability was quantified as follows. […] To enable differentiation of cytotoxic from cytostatic compound effects, the number of viable cells on the day of compound addition (day 0) was assessed in a separate cell plate and used to assess the extent of cell viability suppression as described in the following section.
as §3
(§5) The extent of growth inhibition and potential cell kill was assessed by comparing the resorufin levels in compound-treated cells with those present at the time of compound addition. To this end, the following conditional concept was programmatically applied in HELIOS to calculate % growth (% G) for each compound-treated well: % G=(T−V0)/V0))*100 when T<V0, and % G=(T−V0)/(V−V0)))*100 when T≥V0, where V0 is the viability level at time of compound addition, while V and T represent vehicle-control and compound-treated viability levels, respectively, at the end of the compound incubation. 100%, 0% and −100% signify absence of growth inhibition, growth stasis, and complete cell kill, respectively. Compound concentrations leading to half-maximal growth inhibition (GI50) and residual cell viability at the highest tested compound concentration (Data(cmax), expressed in percent) were routinely calculated.

[3] = test system: YAP-dependent transcription in NCI-H2052 Tet-On shYAP_2371 pLenti6 MCAT_Luc cells; experiment: YAP reporter gene activity assay (MCAT-Luc), NCI-H2052; type: cell-based; conditions: Homo sapiens, 24 hrs
[4] = test system: YAP-dependent transcription in SF268-MCAT_Luc_dox-i-shYAPLevy (Clone 13) cells; experiment: YAP reporter gene activity assay (MCAT-Luc), SF268; type: cell-based; conditions: Homo sapiens, SF-268; SF268 MCAT_Luc, 24 hrs
[5] = test system: NCI-H2052 Tet-On shYAP_2371 pLenti6 MCAT_Luc cells; experiment: Proliferation assay (resazurin/AlamarBlue), NCI-H2052; type: cell-based; conditions: Homo sapiens; NCI-H2052, 72 hours
Source text: as §1, §2, §4, §3, §5

[6] = target: TEAD1-GFP in HEK293A cells (Homo sapiens (Human), UniProt P28347); experiment: TEAD1 protein abundance flow cytometry assay in HEK293A; type: cell-based; conditions: HEK293A TEAD1-GFP-CHYSEL-mCherry sensor cells, 24 h, GFP signal by flow cytometry
Procedure: Degradation of TEAD1 was measured in HEK293A cells (Invitrogen R70507) expressing TEAD1-GFP and mCherry from a stably integrated bicistronic TEAD1-GFP-CHYSEL-mCherry construct. Reduction of the GFP signal measured by flow cytometry served as readout for TEAD1 degradation after degrader treatment.
Stable HEK293A sensor cells were maintained in complete growth medium (DMEM high Glucose+10% FCS+1% L-Glutamine+1% NEAA+1% NaPyr.+4 μg/mL blasticidin) with passaging performed twice per week. On Day 0, stable HEK293A sensor cells were seeded at 5,000 cells/well in a 96-well microtiter plate in 100 μL complete medium. On Day 1, cells were treated in duplicate with 10-point 1:3 dilution series of compound using the HP D300 Digital Dispenser (Tecan). DMSO concentrations were normalized across the plate to 0.1%. On Day 2, after 24 h of incubation at 37° C., treatment media was discarded, cells rinsed with 100 μL/well PBS and then detached using 40 μL trypsin/well for 5 min. Trypsin was neutralized with 100 μL/well PBS+20% FCS).
Flow cytometry was performed on the samples using the CytoFlex S (Beckman Coulter). Cell identification was then performed using forward (FSC) vs. side scatter (SSC) plots. Single cell discrimination was performed using SSC-Width (SSC-W) vs. SSC-Height (SSCH) plots. Median GFP values for 2,500 single cells were used to determine TEAD1 levels. Median GFP values from HEK293A were used as a background signal and thus defining 0% TEAD1 signal. Median GFP values from DMSO treated HEK293A TEAD1-GFP CHYSEL-mCherry were used to define 100%
TEAD1 signal for subsequent DC50 curves (concentration at 50% TAED1 degradation). GFP and RFP were read in the channels called FITC and PE, respectively. Concentration response curves plotting relative reduction of the GFP signal (measured by flow cytometry) versus 10 compound concentrations (starting concentration 10 μM, 3 fold dilution steps) of the compounds allowed generation of DC50 values.

[7] = test system: SF268-MCAT_Luc_dox-i-shYAPLevy (Clone 13) cells; experiment: Proliferation assay (resazurin/AlamarBlue), SF268; type: cell-based; conditions: Homo sapiens, SF-268; SF268, 72 hours
Source text: as §1, §2, §4, §3, §5

Chain of TEAD1-GFP in HEK293A cells (P28347 whole entry): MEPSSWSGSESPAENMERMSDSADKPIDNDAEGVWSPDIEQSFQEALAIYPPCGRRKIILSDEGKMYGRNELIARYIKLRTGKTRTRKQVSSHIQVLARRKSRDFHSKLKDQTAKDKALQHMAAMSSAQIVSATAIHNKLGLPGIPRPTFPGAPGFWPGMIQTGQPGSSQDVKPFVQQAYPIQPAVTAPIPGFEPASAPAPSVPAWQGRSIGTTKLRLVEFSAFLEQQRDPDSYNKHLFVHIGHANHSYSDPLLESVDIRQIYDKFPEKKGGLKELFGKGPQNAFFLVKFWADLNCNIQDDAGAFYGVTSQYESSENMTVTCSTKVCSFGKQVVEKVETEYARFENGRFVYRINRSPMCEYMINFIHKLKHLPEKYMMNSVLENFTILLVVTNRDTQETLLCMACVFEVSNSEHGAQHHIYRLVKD
Chain of Avi-humanTEAD4^217-434 / Cy5 labeled humanYAP^60-100 (Q15561 217-434): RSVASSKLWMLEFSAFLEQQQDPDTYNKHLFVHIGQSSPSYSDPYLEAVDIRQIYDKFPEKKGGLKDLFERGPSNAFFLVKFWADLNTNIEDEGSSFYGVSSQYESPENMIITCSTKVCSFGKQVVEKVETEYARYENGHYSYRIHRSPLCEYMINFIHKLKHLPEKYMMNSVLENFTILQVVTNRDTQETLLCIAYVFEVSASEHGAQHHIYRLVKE

| SMILES | IC50 [1] [nM] | IC50 [2] [nM] | GI50 (MKN-45/Ubc-luc cells) [nM] | IC50 [3] [nM] | IC50 [4] [nM] | GI50 [5] [nM] | DC50 [6] [nM] | GI50 [7] [nM] |
| --- | --- | --- | --- | --- | --- | --- | --- | --- |
| COc1ccc(C(=O)N2CCN(CC3CCN(CCNC(=O)[C@H]4CC[C@H](NC[C@]5(c6ccccc6)Oc6cc(F)c(Cl)c(-c7c(C(N)=O)ccc(OC)c7F)c6[C@@H]5C)CC4)CC3)CC2)cc1N1CCC(=O)NC1=O (atropisomer, axis not shown) [Example 3, 2-((2S,3S,4S)-5-chloro-2-((((1r,4S)-4-((2-(4-((4-(3-(2,4-dioxotetrahydropyrimidin-1(2H)-yl)-4-methoxybenzoyl)piperazin-1-yl)methyl)piperidin-1-yl)ethyl)carbamoyl)cyclohexyl)amino)methyl)-6-fluoro-3-methyl-2-phenyl-2,3-dihydrobenzofuran-4-yl)-3-fluoro-4-methoxybenzamide] | > 20000 | < 1 | > 20000 | 98 | 1.6 | 320 | 6 | 54 |
| COc1ccc(C(=O)N2CCC3(CCN(CCNC(=O)[C@H]4CC[C@H](NC[C@]5(c6ccccc6)Oc6cc(F)c(Cl)c(-c7c(C(N)=O)ccc(OC)c7F)c6[C@@H]5C)CC4)CC3)CC2)cc1N1CCC(=O)NC1=O (atropisomer, axis not shown) [Example 5, 2-((2S,3S,4S)-5-chloro-2-((((1r,4S)-4-((2-(9-(3-(2,4-dioxotetrahydropyrimidin-1(2H)-yl)-4-methoxybenzoyl)-3,9-diazaspiro[5.5]undecan-3-yl)ethyl)carbamoyl)cyclohexyl)amino)methyl)-6-fluoro-3-methyl-2-phenyl-2,3-dihydrobenzofuran-4-yl)-3-fluoro-4-methoxybenzamide] | > 20000 | < 1 | > 20000 | 160 | 2.5 | 360 | 35 | 89 |
| COc1ccc(C(=O)NCCCCCn2cc(-c3ccc4c(c3)CN(C3CCC(=O)NC3=O)C4=O)nn2)c(-c2c(Cl)c(F)cc3c2C[C@@](CN)(c2ccccc2)O3)c1F (stereo partly drawn) [Example 37, 2-((2S,4S)-2-(aminomethyl)-5-chloro-6-fluoro-2-phenyl-2,3-dihydrobenzofuran-4-yl)-N-(5-(4-(2-(2,6-dioxopiperidin-3-yl)-1-oxoisoindolin-5-yl)-1H-1,2,3-triazol-1-yl)pentyl)-3-fluoro-4-methoxybenzamide] | 15900 | 120 | 12400 | 3350 | 420 | 6050 |  | 14900 |

The next lines start with results.

| IC50 [1] [nM] | IC50 [2] [nM] | GI50 (MKN-45/Ubc-luc cells) [nM] | IC50 [3] [nM] | IC50 [4] [nM] | GI50 [5] [nM] | DC50 [6] [nM] | SMILES | GI50 [7] [nM] |
| --- | --- | --- | --- | --- | --- | --- | --- | --- |
| > 20000 | 1.9 | 11000 | 3.6 | 0.3 | 15 | 0.6 | COc1ccc(C(=O)N2CCC(CC3CCN(C(=O)[C@H]4CC[C@H](NC[C@]5(c6ccccc6)Oc6cc(F)c(Cl)c(-c7c(C(N)=O)ccc(OC)c7F)c6[C@@H]5C)CC4)CC3)CC2)cc1N1CCC(=O)NC1=O (atropisomer, axis not shown) [Example 1, 2-((2S,3S,4S)-5-chloro-2-((((1r,4S)-4-(4-((1-(3-(2,4-dioxotetrahydropyrimidin-1(2H)-yl)-4-methoxybenzoyl)piperidin-4-yl)methyl)piperidine-1-carbonyl)cyclohexyl)amino)methyl)-6-fluoro-3-methyl-2-phenyl-2,3-dihydrobenzofuran-4-yl)-3-fluoro-4-methoxybenzamide] | 14 |
| > 20000 | 1.4 | > 20000 | 13 | 0.9 | 48 | 2 | COc1ccc(C(=O)N2CCC(OC3CCN(C(=O)[C@H]4CC[C@H](NC[C@]5(c6ccccc6)Oc6cc(F)c(Cl)c(-c7c(C(N)=O)ccc(OC)c7F)c6[C@@H]5C)CC4)CC3)CC2)cc1N1CCC(=O)NC1=O (atropisomer, axis not shown) [Example 2, 2-((2S,3S,4S)-5-chloro-2-((((1r,4S)-4-(4-((1-(3-(2,4-dioxotetrahydropyrimidin-1(2H)-yl)-4-methoxybenzoyl)piperidin-4-yl)oxy)piperidine-1-carbonyl)cyclohexyl)amino)methyl)-6-fluoro-3-methyl-2-phenyl-2,3-dihydrobenzofuran-4-yl)-3-fluoro-4-methoxybenzamide] | 41 |
